Data published in US20230416228A1 (Forkhead Biotherapeutics, Inc., priority 2020, published 2023).

What follows are compounds tested against T1, human FOXO1 (constitutively active form Thr24Ala, Ser256Ala, Ser319Ala) (Homo sapiens, UniProt Q12778, S256A/S319A/T24A) (assay: FOXO1 inhibitor activity assay: cell-based transcriptional (luciferase) reporter assay in HEK293 cells). Conditions: HEK293 cells transfected with insulin response element firefly luciferase reporter, FOXO1 and Renilla luciferase; 10-point dose response 50 μM to 2.5 nM; 24 hours.
T1 construct: expressed in transfected cells; host or cells: HEK293 cells transfected with pcDNA3.1 plasmid
Experimental: The inhibitory activities of compounds on FOXO1 were determined by a cell-based transcriptional reporter assay. HEK293 cells were plated onto either 384-well poly-D-lysine coated plates (at 7500 cells per well) or 96-well plates (at 20000 cells per well) in low glucose Eagle's Minimum Essential Medium (EMEM) containing 1% fetal bovine serum, and incubated overnight at 37° C. and 5% CO2. […] Duplicate wells were included for each treatment condition. Cells were incubated for 24 hours at 37° C. and 5% CO2. Luciferase activities in each well were measured using Dual-Glog Luciferase Assay System (Promega) according to manufacturer's protocol and an Envision plate reader suitable for luminescence detection. Firefly luciferase activity was divided by Renilla luciferase activity to calculate a ratio for each well. The ratio in wells containing cells transfected with all 3 plasmids listed above and receiving only DMSO without compound addition was set to 100%. The ratio in wells containing cells transfected with plasmid (1), plasmid (3), and pcDNA3.1 containing the open reading frame of red fluorescent protein (instead of human FOXO1) and treated with DMSO was set to 0%. The ratio in each well receiving compound treatment was normalized and expressed as a percentage. Data were fit by 4-parameter logistic regression to determine IC50 and maximal inhibition values. Each compound was tested in a minimum of 2 independent experiments.

T1 sequence (Q12778 whole entry T24A/S256A/S319A): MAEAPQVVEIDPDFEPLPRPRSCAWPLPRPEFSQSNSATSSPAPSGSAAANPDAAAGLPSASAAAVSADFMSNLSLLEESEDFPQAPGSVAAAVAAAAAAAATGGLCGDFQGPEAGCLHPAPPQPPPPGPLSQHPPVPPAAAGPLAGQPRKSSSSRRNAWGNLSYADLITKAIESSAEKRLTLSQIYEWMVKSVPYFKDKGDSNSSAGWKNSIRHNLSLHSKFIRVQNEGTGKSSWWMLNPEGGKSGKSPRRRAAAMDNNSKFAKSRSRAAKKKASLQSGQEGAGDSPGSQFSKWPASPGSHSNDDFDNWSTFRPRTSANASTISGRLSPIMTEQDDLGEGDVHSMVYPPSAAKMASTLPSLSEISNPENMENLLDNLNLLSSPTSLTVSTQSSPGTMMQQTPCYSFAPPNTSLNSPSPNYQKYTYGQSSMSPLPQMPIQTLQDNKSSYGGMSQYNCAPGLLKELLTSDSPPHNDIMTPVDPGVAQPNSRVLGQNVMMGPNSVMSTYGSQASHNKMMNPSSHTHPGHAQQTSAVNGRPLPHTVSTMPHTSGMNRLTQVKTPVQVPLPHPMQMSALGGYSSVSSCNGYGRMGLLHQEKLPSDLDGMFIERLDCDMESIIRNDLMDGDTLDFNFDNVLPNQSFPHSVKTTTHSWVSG

Row | IC50 [nM] | SMILES
1 | < 100 | COCCCOc1ccc(C(=O)Nc2cc(-c3nc4cc(OC)ccc4[nH]3)[nH]n2)cc1Cl [Compound A-58, 3-chloro-N-[5-(5-methoxy-1H-benzimidazol-2-yl)-1H-pyrazol-3-yl]-4-(3-methoxypropoxy)benzamide]
2 | > 1000 | O=C(Nc1cc(-c2nc3ccccc3[nH]2)[nH]n1)c1ccc(N2C[C@H](O)[C@@H](O)C2)nc1 [Compound A-60, N-[5-(1H-benzimidazol-2-yl)-1H-pyrazol-3-yl]-6-[(3S,4S)-3,4-dihydroxy-pyrrolidin-1-yl]pyridine-3-carboxamide]
3 | 100 to 300 | CCOCCNc1ccc(C(=O)Nc2cc(-c3nc4ccccc4[nH]3)[nH]n2)cn1 [Compound A-61, N-[5-(1H-benzimidazol-2-yl)-1H-pyrazol-3-yl]-6-(2-ethoxyethylamino)-pyridine-3-carboxamide]
4 | > 1000 | O=C(O)COc1ccc(C(=O)Nc2cc(-c3nc4ccccc4[nH]3)[nH]n2)cn1 [Compound A-62, 2-[[5-[[5-(1H-benzimidazol-2-yl)-1H-pyrazol-3-yl]carbamoyl]-2-pyridyl]-oxy]acetic acid]
5 | < 100 | COC1CN(c2ccc(C(=O)Nc3cc(-c4nc5ccccc5[nH]4)[nH]n3)cn2)C1 [Compound A-65, N-[5-(1H-benzimidazol-2-yl)-1H-pyrazol-3-yl]-6-(3-methoxyazetidin-1-yl)pyridine-3-carboxamide]
6 | 300 to 1000 | O=C(Nc1cc(-c2nc3ccccc3[nH]2)[nH]n1)c1ccc(N2CCCC(O)C2)nc1 (stereo not drawn) [Compound A-66, N-[5-(1H-benzimidazol-2-yl)-1H-pyrazol-3-yl]-6-(3-hydroxy-1-piperidyl)pyridine-3-carboxamide]
7 | < 100 | O=C(Nc1cc(-c2nc3ccccc3[nH]2)[nH]n1)c1ccc(N2CCC(CO)CC2)nc1 [Compound A-67, N-[5-(1H-benzimidazol-2-yl)-1H-pyrazol-3-yl]-6-[4-(hydroxymethyl)-1-piperidyl]pyridine-3-carboxamide]
8 | > 1000 | CCOC(=O)COc1ccc(C(=O)Nc2cc(-c3nc4ccccc4[nH]3)[nH]n2)cn1 [Compound A-70, ethyl 2-[[5-[[5-(1H-benzimidazol-2-yl)-1H-pyrazol-3-yl]carbamoyl]-2-pyridyl]oxy]acetate]
9 | > 1000 | O=C(O)COc1ccc(C(=O)Nc2cc(-c3nc4ccccc4[nH]3)[nH]n2)cc1Cl [Compound A-72, 2-[4-[[5-(1H-benzimidazol-2-yl)-1H-pyrazol-3-yl]carbamoyl]-2-chloro-phenoxy]acetic acid]
10 | < 100 | COCCOc1ccc(C(=O)Nc2cc(-c3nc4ccccc4[nH]3)[nH]n2)cc1OC [Compound A-75, N-[5-(1H-benzimidazol-2-yl)-1H-pyrazol-3-yl]-3-methoxy-4-(2-methoxyethoxy)benzamide]
11 | > 1000 | COc1ccc(C(=O)Nc2n[nH]c(-c3nc4ccccc4[nH]3)c2F)cc1Cl [Compound A-76, N-[5-(1H-benzimidazol-2-yl)-4-fluoro-1H-pyrazol-3-yl]-3-chloro-4-methoxy-benzamide]
12 | < 100 | COCCOc1ccc(C(=O)Nc2cc(-c3nc4cc(OC)ccc4[nH]3)[nH]n2)cc1Cl [Compound A-79, 3-chloro-N-[5-(5-methoxy-1H-benzimidazol-2-yl)-1H-pyrazol-3-yl]-4-(2-methoxyethoxy)benzamide]
13 | 100 to 300 | O=C(Nc1cc(-c2nc3cc(F)ccc3[nH]2)[nH]n1)c1ccc(N2CCC(O)CC2)nc1 [Compound A-81, N-[5-(5-fluoro-1H-benzimidazol-2-yl)-1H-pyrazol-3-yl]-6-(4-hydroxy-1-piperidyl)pyridine-3-carboxamide]
14 | < 100 | O=C(Nc1cc(-c2nc3cc(F)ccc3[nH]2)[nH]n1)c1ccc(N2CCOCC2)nc1 [Compound A-82, N-[5-(5-fluoro-1H-benzimidazol-2-yl)-1H-pyrazol-3-yl]-6-morpholino-pyridine-3-carboxamide]
15 | < 100 | O=C(Nc1cc(-c2nc3cccc(F)c3[nH]2)[nH]n1)c1ccc(N2CCC(CO)CC2)nc1 [Compound A-83, N-[5-(7-fluoro-1H-benzimidazol-2-yl)-1H-pyrazol-3-yl]-6-[4-(hydroxymethyl)-1-piperidyl]pyridine-3-carboxamide]
16 | < 100 | O=C(Nc1cc(-c2nc3cccc(F)c3[nH]2)[nH]n1)c1ccc(N2CCOCC2)nc1 [Compound A-85, N-[5-(7-fluoro-1H-benzimidazol-2-yl)-1H-pyrazol-3-yl]-6-morpholino-pyridine-3-carboxamide]
17 | > 1000 | O=C(Nc1cc(-c2nc3cc(Cl)ccc3[nH]2)[nH]n1)c1ccc(N2CCC(CO)CC2)nc1 [Compound A-86, N-[5-(5-chloro-1H-benzimidazol-2-yl)-1H-pyrazol-3-yl]-6-[4-(hydroxymethyl)-1-piperidyl]pyridine-3-carboxamide]
18 | > 1000 | O=C(Nc1cc(-c2nc3cc(Cl)ccc3[nH]2)[nH]n1)c1ccc(N2CCOCC2)nc1 [Compound A-88, N-[5-(5-chloro-1H-benzimidazol-2-yl)-1H-pyrazol-3-yl]-6-morpholino-pyridine-3-carboxamide]
19 | > 1000 | O=C(Nc1cc(-c2nc3cc(Br)ccc3[nH]2)[nH]n1)c1ccc(N2CCC(O)CC2)nc1 [Compound A-90, N-[5-(5-bromo-1H-benzimidazol-2-yl)-1H-pyrazol-3-yl]-6-(4-hydroxy-1-piperidyl)pyridine-3-carboxamide]
20 | > 1000 | O=C(Nc1cc(-c2nc3cc(Br)ccc3[nH]2)[nH]n1)c1ccc(N2CCOCC2)nc1 [Compound A-91, N-[5-(5-bromo-1H-benzimidazol-2-yl)-1H-pyrazol-3-yl]-6-morpholino-pyridine-3-carboxamide]

Further lines, the compound ahead of its results:

Row | SMILES | IC50 [nM]
21 | CCOC(=O)COc1ccc(C(=O)Nc2cc(-c3nc4ccccc4[nH]3)[nH]n2)cc1Cl [Compound A-57, ethyl 2-[4-[[5-(1H-benzimidazol-2-yl)-1H-pyrazol-3-yl]carbamoyl]-2-chloro-phenoxy]acetate] | > 1000
22 | CC1(O)CCCN(c2ccc(C(=O)Nc3cc(-c4nc5ccccc5[nH]4)[nH]n3)cn2)C1 (stereo not drawn) [Compound A-59, N-[5-(1H-benzimidazol-2-yl)-1H-pyrazol-3-yl]-6-(3-hydroxy-3-methyl-1-piperidyl)pyridine-3-carboxamide] | 300 to 1000
23 | C[C@H](CO)Nc1ccc(C(=O)Nc2cc(-c3nc4ccccc4[nH]3)[nH]n2)cn1 [Compound A-63, N-[5-(1H-benzimidazol-2-yl)-1H-pyrazol-3-yl]-6-[[(1R)-2-hydroxy-1-methyl-ethyl]amino]pyridine-3-carboxamide] | > 1000
24 | O=C(Nc1cc(-c2nc3ccccc3[nH]2)[nH]n1)c1ccc(N2CC(O)C2)nc1 [Compound A-64, N-[5-(1H-benzimidazol-2-yl)-1H-pyrazol-3-yl]-6-(3-hydroxyazetidin-1-yl)pyridine-3-carboxamide] | > 1000
25 | O=C(Nc1cc(-c2nc3ccccc3[nH]2)[nH]n1)c1ccc(N2CCCC(CO)C2)nc1 (stereo not drawn) [Compound A-68, N-[5-(1H-benzimidazol-2-yl)-1H-pyrazol-3-yl]-6-[3-(hydroxymethyl)-1-piperidyl]pyridine-3-carboxamide] | < 100
26 | O=C1CN(c2ccc(C(=O)Nc3cc(-c4nc5ccccc5[nH]4)[nH]n3)cn2)CCN1 [Compound A-69, N-[5-(1H-benzimidazol-2-yl)-1H-pyrazol-3-yl]-6-(3-oxopiperazin-1-yl)pyridine-3-carboxamide] | 300 to 1000
27 | COc1ccc(C(=O)Nc2n[nH]c(-c3nc4ccccc4[nH]3)c2Br)cc1Cl [Compound A-71, N-[5-(1H-benzimidazol-2-yl)-4-bromo-1H-pyrazol-3-yl]-3-chloro-4-methoxy-benzamide] | 300 to 1000
28 | COC[C@H](C)Nc1ccc(C(=O)Nc2cc(-c3nc4ccccc4[nH]3)[nH]n2)cn1 [Compound A-73, N-[5-(1H-benzimidazol-2-yl)-1H-pyrazol-3-yl]-6-[[(1S)-2-methoxy-1-methyl-ethyl]amino]pyridine-3-carboxamide] | 300 to 1000
29 | COc1ccc(C(=O)Nc2n[nH]c(-c3nc4ccccc4[nH]3)c2Cl)cc1Cl [Compound A-74, N-[5-(1H-benzimidazol-2-yl)-4-chloro-1H-pyrazol-3-yl]-3-chloro-4-methoxy-benzamide] | > 1000
30 | O=C(Nc1cc(-c2nc3ccccc3[nH]2)[nH]n1)c1ccc(NCCO)c(Cl)c1 [Compound A-78, N-[5-(1H-benzimidazol-2-yl)-1H-pyrazol-3-yl]-3-chloro-4-(2-hydroxy-ethylamino)benzamide] | 100 to 300
31 | O=C(Nc1cc(-c2nc3cc(F)ccc3[nH]2)[nH]n1)c1ccc(N2CCC(CO)CC2)nc1 [Compound A-80, N-[5-(5-fluoro-1H-benzimidazol-2-yl)-1H-pyrazol-3-yl]-6-[4-(hydroxymethyl)-1-piperidyl]pyridine-3-carboxamide] | < 100
32 | O=C(Nc1cc(-c2nc3cc(Cl)ccc3[nH]2)[nH]n1)c1ccc(N2CCC(O)CC2)nc1 [Compound A-87, N-[5-(5-chloro-1H-benzimidazol-2-yl)-1H-pyrazol-3-yl]-6-(4-hydroxy-1-piperidyl)pyridine-3-carboxamide] | > 1000
33 | O=C(Nc1cc(-c2nc3cc(Br)ccc3[nH]2)[nH]n1)c1ccc(N2CCC(CO)CC2)nc1 [Compound A-89, N-[5-(5-bromo-1H-benzimidazol-2-yl)-1H-pyrazol-3-yl]-6-[4-(hydroxymethyl)-1-piperidyl]pyridine-3-carboxamide] | > 1000
